Data set [1] in a line: Drug content (% label claim) of sirolimus solutions with antioxidants, HPLC assay. The procedure: Screening experiments were performed to evaluate the solubility of various antioxidants in […] (THF) solutions containing sirolimus and the percentage of antioxidant required to prevent oxidation of sirolimus alone and in a basecoat polymeric matrix. THF is the solvent in which sirolimus may be dissolved. It is important to note that other solvents may be utilized. Two sets of controls were utilized. Control #1 comprises solutions of THF and sirolimus and/or polymers with no antioxidant, and Control #2 comprises solutions of THF and sirolimus and/or polymers, wherein the THF contains a label claim of 250 ppm of BHT as a stabilizer from the vendor of THF. In other words, the BHT is an added constituent of the THF solvent to prevent oxidation of the solvent. All percentages are given as weight/volume.
Table 11, shown below, identifies the samples for evaluation. All percentages are given as weight/volume. The samples in Table 11 contain no polymer. Table 12, also shown below, identifies the samples for evaluation with the solutions now comprising polymers, including PBMA and PEVA as described herein.
(60° C.). The samples were evaluated after five (5) days utilizing a drug testing assay for silolimus. In the exemplary embodiment, a HPLC assay was utilized.
Additional samples were tested under ambient conditions, rather than at 60° C., and using the same compositions; however, the test period was expanded to seven weeks.

The nature of data set [2]: Percent drug content change on coated cobalt-chromium 18 mm stent. It counts as physicochemical. As to conditions: 0.02 weight percent BHT per total basecoat solids; 8 weeks and 12 weeks, ambient conditions (25° C.). From the text: Referring to FIG. 75, there is illustrated in graphical format, the results of the same drug screening as described above with the solution applied to a cobalt-chromium, 18 mm stent. In this test, two sets of solution samples were utilized, one with sirolimus and polymer solution containing the antioxidant and one with sirolimus and polymer solution containing no antioxidant. The antioxidant utilized was 0.02 weight percent BHT per total basecoat solids.
The test was utilized to determine the percent drug content change over a time period of 0 to 12 weeks under two conditions; namely, 40° C. with 75 percent relative humidity, and ambient conditions (25° C.).

Data set [3] can be described thus: Drug concentration in liquid formulations by liquid chromatography / HPLC. It counts as physicochemical. An excerpt: In accordance with exemplary embodiments of the present invention, a series of liquid formulations were developed for the local or regional delivery of water insoluble compounds such as sirolimus and its analogs, including CCI-779, ABT-578 and everolimus, through weeping balloons and catheter injection needles. […] These liquid formulations increase the apparent solubility of the pharmacologically active but water insoluble compounds by two to four orders of magnitude as compared to the solubility limits of the compounds in water. These liquid formulations rely on the use of a very small amount of organic solvents such as Ethanol (typically less than two percent) and a larger amount of safe amphiphilic (of or relating to a molecule having a polar, water soluble group attached to a non-polar, water insoluble […]) excipients such as polyethylene glycol (PEG 200, PEG 400) and vitamin E TPGS to enhance the solubility of the compounds. These liquid formulations of highly water insoluble compounds are stable and readily flowable at room temperature. Certain excipients, such as Vitamin E TPGS and BHT may be utilized to enhance the storage stability of sirolimus compounds through their anti-oxidation properties. […]

Data set [4] relates to human coronary artery smooth muscle cells. In words: Anti-proliferative activity in non-synchronized cultured cells stimulated with two percent fetal bovine serum. It counts as cell-based. As to conditions: for effect on the anti-proliferative activity of rapamycin: non-synchronized cells, mycophenolic acid zero to one thousand nanomolar, cladribine zero to nine hundred nanomolar. An excerpt: The multiple curves represent various concentrations of mycophenolic acid ranging from zero to one thousand nanomolar concentrations.
FIG. 58 illustrates, in graphical format, the anti-proliferative activity of cladribine in non-synchronized cultured human coronary artery smooth muscle cells stimulated with two percent fetal bovine serum.
The multiple curves represent various concentrations of cladribine ranging from zero to nine hundred nanomolar concentrations.

A short description of data set [5]: In vivo release kinetics from polymeric stent coatings, porcine pharmacokinetics studies.
Text: The topcoat is two hundred micro grams. […] Cladribine (2-chlorodeoxyadenosine or 2-CdA) is the 2-chloro-2′-deoxy derivative of the purine nucleoside, adenosine. Cladribine is resistant to degradation by adenosine deaminase, one of two intracellular adenine nucleotide regulatory enzymes, found in most cells. The other enzyme, 5′-nucleotidase, is present in variable amounts in different cell types (Carson et al., 1983). […] Thus, in cells such as leukocytes, which contain a high ratio (>0.04) of deoxycytidine kinase to 5′-nucleotidase, 2-CdA and its subsequent metabolites will tend to accumulate in pharmacological concentrations (Carson et al., 1983). Such high levels of a nucleoside triphosphate are known to inhibit the enzyme ribonucleotide reductase in rapidly dividing cells, thus preventing synthesis of deoxynucleotides required for DNA synthesis.
FIG. 61 is a graphical representation of the in vivo release kinetics of cladribine from a polymeric coating on Bx Velocity® stents, available from Cordis Corporation, implanted in a Yorkshire pig. […] The total weight of the topcoat is three hundred micrograms.
(§1) The basecoat is applied to Bx Velocity® stents and implanted into Yorkshire pigs.
as §1

Data set [6] relates to human smooth muscle cells. In words: Cladribine Example: PDGF-stimulated cell proliferation, cell count on day six. It counts as cell-based. As to conditions: from IC50 values. The procedure: To assess the ability of cladribine to prevent cell proliferation, human smooth muscle or endothelial cells (Clonetics, Walkersville, Md.) were seeded at a density of 2000 cells/cm^2 (approximately 3600 cells/well) into each well of 12-well plates and cultured with 1.5 ml of growth medium containing five percent fetal calf serum (FCS). After twenty-four hours, the growth medium was changed and fresh medium containing 10 ng/ml platelet-derived growth factor AB (PDGF AB; LIFE Technologies), as well as various concentrations of cladribine (0.001-10,000 nM) were added with triplicate wells. Medium was replaced with fresh cladribine-containing medium after three days. On day six, cells were detached by trypsinization to yield a cell suspension, lightly centrifuged to pellet and then counted manually using a Neubauer hemocytometer system. Cell viability was assessed by trypan blue exclusion.

The subject of data set [7] is human coronary artery smooth muscle cell survival. The settings on record: concentrations up to 30,000.00 nanomolar. From the text:
In vitro cytotoxicity tests or assays may be utilized to determine if drugs, agents and/or compounds are potentially toxic and the level of toxicity. Essentially, in vitro cytotoxicity assays determine acute necrotic effects by a drug causing direct cellular damage. The idea behind these assays is that toxic chemicals affect basic functions of cells which are common to all cells. […] There are a number of different assays that may be utilized. In the present invention, the cytotoxicity assay utilized is based upon the measurement of cellular metabolic activity. A reduction in metabolic activity is an indication of cellular damage. Tests that can measure metabolic function measure cellular ATP levels or mitochondrial activity via MTS metabolism. FIG. 69 is a graphical representation of the results of an MTS assay of Panzem®.

Data set [8] concerns human coronary artery smooth muscle cells. As to the kind of experiment: Anti-proliferative activity in synchronized cultured cells stimulated with two percent fetal bovine serum. The format is cell-based. As to conditions: for effect on the anti-proliferative activity of rapamycin: topotecan zero to three hundred nanomolar, etoposide zero to eight hundred nanomolar, Panzem zero to 100 micromolar. From the text: (§2) The multiple curves represent various concentrations of topotecan ranging from zero to three hundred nanomolar concentrations.
(§3) The multiple curves represent various concentrations of etoposide ranging from zero to eight hundred nanomolar concentrations.
The multiple curves represent various concentrations of Panzem® ranging from zero to 100 micromolar concentrations.

A further data set deals with cell viability. As to the kind of experiment: Cell viability assay. It counts as cell-based.
Text: as §2, §3

The subject of data set [9] is human coronary artery smooth muscle cell proliferation. In words: In vitro cell culture study of coronary artery smooth muscle cell proliferation. It counts as cell-based. From the text: FIG. 51 is a graph of the inhibition of coronary artery smooth muscle cells by trichostatin A in a cell culture study.
The subject of the next data set is tumor cell lines. The settings on record: Woo et al. 2002; cited from earlier work.

Data on eleven compounds can be found in US8007737B2, “Use of antioxidants to prevent oxidation and reduce drug degradation in drug eluting medical devices” (Wyeth, priority 2004, dated 2011).

Like-named read-outs stand apart in the source and are kept apart here.

Take `O=C1O[C@H]([C@@H](O)CO)C(O)=C1O` [Ascorbic Acid]: the “protection of sirolimus against degradation” value (from here on “protection of sirolimus”) in data set [1] is given as “significant protection”.
For the compound `Cc1cc(C(C)(C)C)c(O)c(C(C)(C)C)c1` [BHT, Butylated Hydroxytoluene], the “percent drug content change on stent” value in data set [2] is reported as “lessens drug degradation”. For the same compound, the “protection of sirolimus” value in [1] is recorded as “significant protection”.
As for `CO[C@H]1C[C@@H]2CC[C@@H](C)[C@@](O)(O2)C(=O)C(=O)N2CCCC[C@H]2C(=O)O[C@H]([C@H](C)C[C@@H]2CC[C@@H](OC(=O)C(C)(CO)CO)[C@H](OC)C2)CC(=O)[C@H](C)/C=C(\C)[C@@H](O)[C@@H](OC)C(=O)[C@H](C)C[C@H](C)/C=C/C=C/C=C/1C` [CCI-779], in data set [3] (water and ethanol (less than two percent) as co-solvents, Vitamin E TPGS as excipient), the “concentration in the final solution (HPLC assay)” value worked out at 15000 µg/mL.
Take `Nc1nc(Cl)nc2c1ncn2[C@H]1C[C@H](O)[C@@H](CO)O1` [Cladribine, 2-chlorodeoxyadenosine]: the “effect on the anti-proliferative activity of rapamycin” value (“effect” below) in data set [4] is recorded as “increases the percent inhibition of rapamycin alone”. In addition, in data set [4] (non-synchronized, two percent fetal bovine serum), the “inhibition of human coronary artery smooth muscle cell proliferation” value is “completely inhibits”. In addition, the “in vivo elution from coating relative to rapamycin” value in data set [5] (EVA/BMA basecoat, BMA topcoat, Bx Velocity stents, Yorkshire pigs) was “elutes more rapidly than rapamycin”. For the same compound, the “in vivo elution from coating” value in data set [5] (PVDF/HFP 85/15 basecoat and topcoat, Bx Velocity stents, Yorkshire pig, after the first day) was “levels off significantly”. For the same compound, the “potency on smooth muscle cells relative to endothelial cells” value in data set [6] is reported as “approximately twice as potent”.
In the case of `COc1cc2c(cc1O)CC[C@@H]1[C@@H]2CC[C@]2(C)[C@@H](O)CC[C@@H]12` [Panzem®, 2-methoxyestradiol], the “cytotoxicity (MTS assay)” value in data set [7] is given as “do not reduce human coronary artery smooth muscle cell survival”. For the same compound, the “effect” value in [8] is “increases the percent of inhibition of rapamycin alone”. Also, in data set [8] (two percent fetal bovine serum), the anti-proliferative activity entry was “extremely effective inhibitor”.
On to `CO[C@H]1C[C@@H]2CC[C@@H](C)[C@@](O)(O2)C(=O)C(=O)N2CCCC[C@H]2C(=O)O[C@H]([C@H](C)C[C@@H]2CC[C@@H](O)[C@H](OC)C2)CC(=O)[C@H](C)/C=C(\C)[C@@H](O)[C@@H](OC)C(=O)[C@H](C)C[C@H](C)/C=C/C=C/C=C/1C` [Rapamycin, rapamycin], for which the “concentration relative to the solubility of sirolimus in water” value in data set [3] (4 mg/ml formulation with PEG 200, ethanol and water) is recorded as “four hundred to about one thousand”. Further, in data set [5] (pig, in vivo), the “in vivo release rate from coating” value is reported as “slower release rate than that of mycophenolic acid”.
Take `COc1cc([C@@H]2c3cc4c(cc3[C@@H](O[C@@H]3O[C@@H]5CO[C@@H](C)O[C@H]5[C@H](O)[C@H]3O)[C@H]3COC(=O)[C@H]23)OCO4)cc(OC)c1O` [etoposide]: the cytotoxicity entry with cell viability (concentrations up to ten micromolar) is reported as “non-cytotoxic”. The “effect” value in data set [8] is listed as “increases the percent inhibition of rapamycin alone”.
As for `COc1c(C)c2c(c(O)c1C/C=C(\C)CCC(=O)O)C(=O)OC2` [mycophenolic acid], in data set [4], the “effect” value is listed as “potentiates the anti-proliferative activity of rapamycin”.
In the case of `CC[C@@]1(O)C(=O)OCc2c1cc1n(c2=O)Cc2cc3c(CN(C)C)c(O)ccc3nc2-1` [topotecan], in the data set with cell viability (concentrations up to one micromolar), the cytotoxicity result was “non-cytotoxic”. In addition, the “effect” value in [8] is “increases the percent inhibition of rapamycin alone”.
The IC50 is the concentration that gives 50% inhibition. On to `CC(/C=C/C(=O)NO)=C\[C@@H](C)C(=O)c1ccc(N(C)C)cc1` [trichostatin A], for which the “inhibition of human coronary artery smooth muscle cell proliferation” value in data set [9] was “completely inhibit”. Moreover, in data set [9] (human coronary artery smooth muscle cells, read-out: anti-proliferative IC50), the IC50 was around 6 nM. The “anti-proliferative IC50's” value in the data set with tumor cell lines is “low nM range”.
On to Tocopherol, for which the “protection of sirolimus” value in data set [1] (five days at 60° C.) was “significant protection”; in data set [1] (four weeks at 60° C., higher percent concentrations of antioxidant), “significant protection”.
